Experiment: Inhibition of human recombinant sPLA2-V at 1 uM

COc1ccc(-c2nc3c(C(N)=O)cccc3[nH]2)cc1 [2-(4-methoxyphenyl)-1H-1,3-benzodiazole-4-carboxamide]
IC50: 3.22 µM
